Among the test systems are A549 NSCLC; SNB-19 CNS; HCC-2998 colon; NCI/ADR-RES ovarian; DU-145 prostate; NCI-H226 lung; OVCAR-4 ovarian; T-47D breast; KM12 colon; SK-MEL-28 melanoma; NCI-H460 lung; TK-10 renal; CCRF-CEM leukemia; CAKI-1 renal; HL-60(TB) leukemia; A498 renal; SK-MEL-5 melanoma; SF-295 CNS.
What all share (assay): inhibition of tumour cell growth, NCI panel, 48 h

SMILES strings stand for the structures.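 1) Cells in 96-well plates. 2) Compound, 48 h, 5 concentrations. 3) Linear interpolation between surrounding doses. 4) Unreached endpoint = highest concentration. Definition used: TGI = concentration required for complete inhibition of growth.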

`Cc1c2c(n(CCN(C)C)c1C)NN=C(C#N)S2(=O)=O`: the TGI in the test with A549 NSCLC, in the test on SNB-19 CNS, in the test with HCC-2998 colon, in the test with NCI/ADR-RES ovarian, in the test on DU-145 prostate and in the test on NCI-H226 lung was over 100 µM in each case. Further, the TGI in the test on OVCAR-4 ovarian, in the test with T-47D breast, in the test on KM12 colon, in the test with SK-MEL-28 melanoma, in the test with NCI-H460 lung and with TK-10 renal was over 100 µM each time.

In the case of `O=c1[nH]n(Cc2ccccn2)c2ccc([N+](=O)[O-])cc12`, the TGI in the test with A549 NSCLC, in the test with SNB-19 CNS, in the test with CCRF-CEM leukemia, with HCC-2998 colon, in the test on NCI/ADR-RES ovarian and in the test with DU-145 prostate was over 100 µM in each case. In addition, the TGI in the test on NCI-H226 lung, with OVCAR-4 ovarian, in the test with KM12 colon, in the test with CAKI-1 renal, with SK-MEL-28 melanoma and in the test with HL-60(TB) leukemia was over 100 µM in each case. In addition, the TGI with NCI-H460 lung, with A498 renal, in the test on SK-MEL-5 melanoma and in the test with TK-10 renal was over 100 µM throughout.

Turning to `COC(=O)[C@@]12OC[C@]34C([C@@H](O)C1O)[C@@]1(C)CC(=O)C(OC(=O)/C=C(/c5ccccc5)C(F)(F)F)=C(C)C1C[C@H]3OC(=O)[C@H](O)[C@H]42` (some centres undefined), the TGI was over 50 µM in the test with A549 NSCLC; 23.2 µM in the test with SNB-19 CNS; over 50 µM in the test on CCRF-CEM leukemia; 22.3 µM in the test on HCC-2998 colon; 29.5 µM in the test with NCI-H226 lung; over 50 µM in the test with OVCAR-4 ovarian. The TGI is 28.1 µM with SF-295 CNS; over 50 µM in the test with KM12 colon; over 50 µM with CAKI-1 renal; 27 µM with SK-MEL-28 melanoma; 2.97 µM in the test on HL-60(TB) leukemia; 23 µM with NCI-H460 lung. In addition, the TGI was 2.26 µM in the test on A498 renal, 31.4 µM in the test on SK-MEL-5 melanoma and over 50 µM with TK-10 renal.

On to `COc1cc([C@@H]2c3cc4c(cc3[C@@H](NC(=O)c3cccc(F)c3)C3COC(=O)[C@@H]32)OCO4)cc(OC)c1O` (some centres undefined), for which the TGI in the test with A549 NSCLC is 2.62 µM; in the test with SNB-19 CNS, 14.2 µM; with CCRF-CEM leukemia, over 100 µM; in the test with HCC-2998 colon, 11.3 µM; in the test with NCI-H226 lung, 2.2 µM; in the test on OVCAR-4 ovarian it was over 100 µM. Also, the TGI amounted to 26.8 µM in the test with SF-295 CNS; 7.2 µM in the test with KM12 colon; 22.5 µM with CAKI-1 renal; 56.5 µM in the test on SK-MEL-28 melanoma; 2.3 µM with HL-60(TB) leukemia; 7.52 µM in the test on NCI-H460 lung. In addition, the TGI with A498 renal was 4.91 µM; in the test with SK-MEL-5 melanoma, 12.7 µM; in the test with TK-10 renal, 17.1 µM.

Take `O=C(NO)C(=O)Nc1ccc(Cl)cc1[N+](=O)[O-]`: the TGI in the test on A549 NSCLC, with SNB-19 CNS, in the test on CCRF-CEM leukemia, with HCC-2998 colon, with NCI-H226 lung and in the test on OVCAR-4 ovarian was over 100 µM each time. Besides, the TGI in the test on SF-295 CNS, in the test with KM12 colon, with CAKI-1 renal, in the test with SK-MEL-28 melanoma, in the test with HL-60(TB) leukemia and in the test on NCI-H460 lung was over 100 µM each time. Besides, the TGI with A498 renal, in the test on SK-MEL-5 melanoma and in the test on TK-10 renal was over 100 µM in each case.

With `Nc1nc(Cl)c2nnn(CC3CCC(CO)C3)c2n1` (centres undefined), the TGI in the test on A549 NSCLC, in the test with SNB-19 CNS, in the test with CCRF-CEM leukemia, with HCC-2998 colon, with NCI/ADR-RES ovarian and in the test on DU-145 prostate was over 100 µM in each case. The TGI in the test on NCI-H226 lung, with OVCAR-4 ovarian, in the test on SF-295 CNS, in the test with T-47D breast, in the test with KM12 colon and with CAKI-1 renal was over 100 µM in each case. In addition, the TGI in the test with SK-MEL-28 melanoma, in the test with A498 renal, in the test on SK-MEL-5 melanoma and with TK-10 renal was over 100 µM in each case.

`Cn1c2cc(O)cc(O)c2c(=O)c2c([N+](=O)[O-])cccc21`: the TGI in the test on A549 NSCLC, in the test with SNB-19 CNS, in the test on CCRF-CEM leukemia, in the test with HCC-2998 colon, in the test with NCI-H226 lung and in the test with OVCAR-4 ovarian was over 100 µM throughout. Moreover, the TGI with SF-295 CNS, with KM12 colon, with CAKI-1 renal, with SK-MEL-28 melanoma, in the test with HL-60(TB) leukemia and with NCI-H460 lung was over 100 µM throughout. Moreover, the TGI in the test on A498 renal, in the test with SK-MEL-5 melanoma and in the test on TK-10 renal was over 100 µM in each case.

The values are drawn from PubChem BioAssay (NCI).
